The record followed here is ChEMBL document CHEMBL4004820 (J Med Chem, 2017).

Structures are written as SMILES.

The assay addresses Matrix protein 2 (Influenza A virus (A/Udorn/307/1972(H3N2)), UniProt P0DOF8, S31N).
`CCC1(N)C2CC3CC(C2)CC1C3` (centres undefined): the Kd entry is “Not Active”.
In the case of `NC1C2CC3CC(C2)CC1C3` (centres undefined), the Kd result is recorded as “Not Active”.
On to `CC1(N)C2CC3CC(C2)CC1C3` (centres undefined), for which the Kd result was “Not Active”.
In the case of `NC12CC3CC(CC(C3)C1)C2` [AMANTADINE] it was “Not Active”.
